In patent US8426138B2 (priority 2006, dated 2013):

Tests used:
[1] = target: T1, β2-adrenergic receptor (Homo sapiens, UniProt P07550); assay type: cell-based; settings: for outcome in high-throughput screen of kinase/phosphatase inhibitor library: library at 3 uM, 384-well plate, duplicate
T1 construct: expressed in transfected cells; host or cells: C2C12 myoblasts (retroviral transduction)

[2] = target: T1, β2-adrenergic receptor; assay type: cell-based; settings: compound applied 30 min before stimulation with 10 uM isoproterenol
Method: Assays and cell preparation. […] LysoTracker Red and Texas Red-labeled transferrin were purchased from Molecular Probes. The Kinase/Phosphatase Inhibitor Library was purchased from BIOMOL, and the Mechanistic and Diversity Compound Libraries were provided by the Developmental Therapeutics Program of the National Cancer Institute. Cells were plated and grown to confluency in 96-well white tissue culture dishes (Corning Costar), in 100 μl of growth media. Dose-response curves were generated by adding the respective ligand to the media and incubating for 2 h at 37° C. […] At the end of the described incubation time, Gal-Screen reagent (Buffer B formulation, Applied Biosystems) was used to assay for β-galactosidase activity, according to manufacturer's protocol; media was aspirated from the plate, and 50 μl (or 25 μl for 384-well plates, without prior media aspiration) of Gal-Screen substrate diluted in lysis buffer was added to each well.

[3] = target: Angiotensin II receptor 1a (AT1a) (Mus musculus, UniProt P29754); settings: 2 hr
Excerpt: Plasmids. […] Other FYVE domains were generated similarly by RT-PCR^˜. […] To generate a β2AR-eYFP-α construct, the eYFP-α fragment was subcloned into the β2AR-ωplasmid using Xhol and HindIII. The Angiotensin receptor 1a was derived by RT-PCR from C57/BI6 mouse brain RNA using primers for the entire coding sequence, minus the stop codon; it was cloned N-terminally to eYFP-α or ω with MfeI and XhoI. […] Finally, to generate fusion proteins with β-arrestin, the full coding sequence of human β-arrestin B2 was PCR amplified from a cDNA clone and inserted into the Mfel-XhoI sites of the ω and eYFP-α vectors.
Assays and cell preparation. […] LysoTracker Red and Texas Red-labeled transferrin were purchased from Molecular Probes. The Kinase/Phosphatase Inhibitor Library was purchased from BIOMOL, and the Mechanistic and Diversity Compound Libraries were provided by the Developmental Therapeutics Program of the National Cancer Institute. Cells were plated and grown to confluency in 96-well white tissue culture dishes (Corning Costar), in 100 μl of growth media. Dose-response curves were generated by adding the respective ligand to the media and incubating for 2 h at 37° C. […]

T1 sequence (P07550 whole entry, species assumed): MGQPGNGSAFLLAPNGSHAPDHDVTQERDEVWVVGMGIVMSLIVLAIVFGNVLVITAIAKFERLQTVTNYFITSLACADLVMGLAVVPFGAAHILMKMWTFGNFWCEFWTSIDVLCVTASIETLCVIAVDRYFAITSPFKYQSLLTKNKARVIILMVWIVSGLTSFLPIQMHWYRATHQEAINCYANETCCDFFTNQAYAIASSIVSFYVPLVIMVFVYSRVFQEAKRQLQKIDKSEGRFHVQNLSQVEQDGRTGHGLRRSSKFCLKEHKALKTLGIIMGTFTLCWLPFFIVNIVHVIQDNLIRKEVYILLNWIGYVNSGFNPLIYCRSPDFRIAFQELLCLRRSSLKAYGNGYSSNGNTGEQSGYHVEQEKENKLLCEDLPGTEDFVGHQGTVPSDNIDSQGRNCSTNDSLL

O=CN/C=C/c1cc(O)ccc1O [erbstatin]
outcome in high-throughput screen of kinase/phosphatase inhibitor library [1]: inhibitors of internalization

CN[C@@H]1C[C@H]2O[C@@](C)([C@@H]1OC)n1c3ccccc3c3c4c(c5c6ccccc6n2c5c31)C(=O)NC4 [staurosporine]
outcome in high-throughput screen of kinase/phosphatase inhibitor library [1]: inhibitors of internalization

COC[C@H]1OC(=O)c2coc3c2[C@@]1(C)C1=C(C3=O)[C@@H]2CCC(=O)[C@@]2(C)C[C@H]1OC(C)=O [wortmannin]
inhibition, internalization assay [1]: approximately 90% | inhibition of activation [2]: approximately 50%

angiotensin II
increase in activity, internalization assay [3]: 4 fold | increase in enzyme activity, arrestin-binding activation assay [3]: 8.5 fold
